# Where “and” joins values, the source holds several entries; their conditions need not be identical. Equal entries are not always repeated.
# Test system: MCF-7 cells, human transcripts
# Experiment: Affymetrix U133 2.0 Plus microarray analysis of gene expression
# Format: cell-based
# Protocol: FIG. 4 depicts microarray analysis of changes in gene expression in MCF-7 cells treated with RAR agonist LGD1550 or RAR antagonist LG100815, plotted using GeneSpring software. The X axis represents different time points of treatment with RAR ligands (0 point correspond to cells cultured for 3 days with DMSO carrier).
# To determine the effects of the RAR agonist and antagonist on the expression of essentially all the human genes, MCF-7 cells were treated with 100 nM of RAR agonist LGD1550 or 10 μM of RAR antagonist LG100815, concentrations that provide maximal induction of gene expression according to Q-PCR assays (as discussed above). Cells were treated for 24, 48 or 72 hrs, and total RNA from the untreated or treated cells was isolated using Qiagen's RNeasy Total RNA Isolation Kit. For gene expression profiling, RNA samples were provided to the microarray service facility of the Wadsworth Center Genomics Institute, which carried out biotinylated target preparation and hybridization with Affymetrix U 133 2.0 Plus oligonucleotide microarrays containing 56,000 probe sets representing 48,500 human transcripts. The hybridization signals were normalized using GCRMA procedure and analyzed using GeneSpring software (Silicone Genetics). […] The effects of the agonist and the antagonist also agreed with the results of the earlier analysis of the effects of RA on MCF-7 cells, with all 13 genes previously shown by RT-PCR to be induced in that system (Dokmanovic et al., 2002) also showing induction in the present microarray analysis (FIG. 4b).
# RNA or protein products of genes that are induced to a similar level by both the RAR agonist and the RAR antagonist can be used as reporters in screening for compounds with properties similar to LG0100815. RNA or protein products of genes from this group (or promoter constructs for such genes) can be used as reporters in screening for compounds that mimic the effect of retinoids. Table 3, as shown below, lists a set of 508 genes chosen as preferred reporters. These genes were selected by being strongly (at least 2-fold) induced by both the agonist and the antagonist relative to untreated cells and showing no more than two-fold difference between their induction by the agonist and the antagonist. 62 genes listed at the top of Table 3 are particularly preferred reporters, as they are most strongly (at least 4-fold) induced by both the agonist and the antagonist. Table 4, as shown below, lists a set of 53 genes that can be used as preferred markers to discriminate between RARE-dependent and RARE-independent induction of transcription. These genes were chosen by being induced at least 3-fold by the agonist relative to untreated cells and also showing at least 4 times stronger induction by the agonist than by the antagonist. FIG. 6 plots the maximal fold induction of gene expression produced by the agonist versus that produced by the antagonist for the genes listed in Table 3 (particularly preferred reporters only) and in Table 4, with the corresponding trend lines. The relative effects of a tested compound on the genes in Table 3 and Table 4 should indicate whether the compound behaves as a RAR agonist or RAR antagonist. For example, one can select matching pairs of genes from Table 3 and Table 4 that are induced by the agonist to approximately the same degree. A compound that mimics the effects of the agonist should induce such genes to a similar level, whereas a compound that behaves like an antagonist should induce the gene from Table 3 to a much greater degree than the gene from Table 4.
# [1] = MCF-7, LGD1550 100 nM, 24, 48 or 72 hrs
# [2] = MCF-7, LGD1550 100 nM, 24, 48 or 72 hrs, listed as agonist
structure (smiles),measurement,setting,value
CC(/C=C/C=C(\C)c1cc(C(C)(C)C)cc(C(C)(C)C)c1)=C\C(=O)O [LGD1550],"Maximal effect, Fold induction","Genbank AI911972, probe 230780_at",3.89 fold
same,"Maximal effect, Fold induction","Genbank AW268719, probe 236798_at",2.03 fold
same,"Maximal effect, Fold induction","Genbank AW612407, probe 230098_at",2.32 fold
same,"Maximal effect, Fold induction","Genbank BF038869, probe 235322_at",2.13 fold
same,"Maximal effect, Fold induction","Genbank CA442342, probe 1556097_at",3.11 fold
same,HOXA4 fold induction by the agonist,"MCF-7, LGD1550 100 nM",7.8 fold
same,RBP1 fold induction by the agonist,"MCF-7, LGD1550 100 nM",4.4 fold
same,number of 40 RARE-containing human genes induced ≧1.5-fold,"MCF-7, LGD1550 100 nM",seven
same,"response of RARE-containing genes induced by both ligands, agonist relative to antagonist","MCF-7, LGD1550 100 nM vs LG100815 10 μM",3-5 fold stronger
same,"APXL2 239435_x_at fold induction, maximal effect of agonist",[1],63.13 fold
same,"APXL2 241935_at fold induction, maximal effect of agonist",[1],5.82 fold
same,"BF593636 228642_at fold induction, maximal effect of agonist",[1],130.43 fold
same,"CA448125 1557050_at fold induction, maximal effect of agonist",[1],8.90 fold
same,"CA448125 1557051_s_at fold induction, maximal effect of agonist",[1],23.74 fold
same,"CEACAM1 206576_s_at fold induction, maximal effect of agonist",[1],16.23 fold
same,"CP 228143_at fold induction, maximal effect of agonist",[1],10.88 fold
same,"CP 1558034_s_at fold induction, maximal effect of agonist",[1],44.25 fold
same,"CYP1A1 205749_at raw signal, maximal effect of agonist",[1],35.09
same,"GBP3 223434_at fold induction, maximal effect of agonist",[1],7.32 fold
same,"HOXA3 230080_at fold induction, maximal effect of agonist",[1],10.38 fold
same,"HPS3 227253_at fold induction, maximal effect of agonist",[1],21.01 fold
same,"HSXIAPAF1 228617_at fold induction, maximal effect of agonist",[1],17.54 fold
same,"IGFBP3 212143_s_at fold induction, maximal effect of agonist",[1],16.12 fold
same,"KRT4 213240_s_at fold induction, maximal effect of agonist",[1],9.38 fold
same,"OAS2 204972_at fold induction, maximal effect of agonist",[1],15.91 fold
same,"RNASE1 201785_at fold induction, maximal effect of agonist",[1],49.39 fold
same,"SLC1A1 213664_at fold induction, maximal effect of agonist",[1],8.96 fold
same,"TRIM31 215444_s_at fold induction, maximal effect of agonist",[1],12.16 fold
same,"CYP26A1 206424_at fold induction, maximal effect of agonist",[2],220 fold and 220.23 fold
same,"HOXA1 214639_s_at fold induction, maximal effect of agonist",[2],95 fold
same,"Maximal effect, Fold induction","gene ACVR1B, Genbank NM_020327, probe 208223_s_at",2.81 fold
same,"Maximal effect, Fold induction","gene ADFP, Genbank BC005127, probe 209122_at",2.05 fold
same,"Maximal effect, Fold induction","gene AKAP13, Genbank AK022014, probe 222024_s_at",2.03 fold
same,"Maximal effect, Fold induction","gene AMIGO, Genbank AA001423, probe 226718_at",2.40 fold
same,"Maximal effect, Fold induction","gene ARHGAP5, Genbank AK023014, probe 233849_s_at",2.03 fold
same,"Maximal effect, Fold induction","gene ARMCX3, Genbank AL121883, probe 222444_at",2.01 fold
same,"Maximal effect, Fold induction","gene BHLHB2, Genbank NM_003670, probe 201170_s_at",3.46 fold
same,"Maximal effect, Fold induction","gene CASP2, Genbank BC002427, probe 209811_at",3.72 fold
same,"Maximal effect, Fold induction","gene CDKL5, Genbank AI611074, probe 227004_at",3.20 fold
same,"Maximal effect, Fold induction","gene CHP, Genbank NM_007236, probe 207993_s_at",2.32 fold
same,"Maximal effect, Fold induction","gene CRTAP, Genbank AA025858, probe 227138_at",2.07 fold
same,"Maximal effect, Fold induction","gene CTMP, Genbank AI184512, probe 229253_at",2.03 fold
same,"Maximal effect, Fold induction","gene DKFZp434H2226, Genbank AL137370, probe 232893_at",2.04 fold
same,"Maximal effect, Fold induction","gene DKFZp434K2435, Genbank AL136855, probe 223594_at",2.08 fold
same,"Maximal effect, Fold induction","gene DNCL2B, Genbank AW959427, probe 238116_at",2.02 fold
same,"Maximal effect, Fold induction","gene DSCR1, Genbank NM_004414, probe 208370_s_at",3.64 fold
same,"Maximal effect, Fold induction","gene DUSP3, Genbank NM_004090, probe 201538_s_at",2.94 fold
same,"Maximal effect, Fold induction","gene DUSP16, Genbank AY038927, probe 1555399_a_at",2.30 fold
same,"Maximal effect, Fold induction","gene FLJ10996, Genbank NM_019044, probe 219774_at",2.02 fold
same,"Maximal effect, Fold induction","gene FLJ11196, Genbank NM_018357, probe 218651_s_at",2.24 fold
same,"Maximal effect, Fold induction","gene FLJ30656, Genbank BF197707, probe 212529_at",2.09 fold
same,"Maximal effect, Fold induction","gene FLJ32096, Genbank AK056658, probe 1555870_at",2.98 fold
same,"Maximal effect, Fold induction","gene FOXO3A, Genbank N25732, probe 204131_s_at",2.53 fold
same,"Maximal effect, Fold induction","gene GALNT7, Genbank BF699855, probe 222587_s_at",2.51 fold
same,"Maximal effect, Fold induction","gene GUCY1B2, Genbank NM_004129, probe 220506_at",2.63 fold
same,"Maximal effect, Fold induction","gene HIG2, Genbank NM_013332, probe 218507_at",2.19 fold
same,"Maximal effect, Fold induction","gene HNRPL, Genbank X16135, probe 35201_at",2.16 fold
same,"Maximal effect, Fold induction","gene INPP1, Genbank NM_002194, probe 202794_at",2.01 fold
same,"Maximal effect, Fold induction","gene INSIG1, Genbank BG292233, probe 201626_at",2.04 fold
same,"Maximal effect, Fold induction","gene JMJD3, Genbank AB002344, probe 41386_i_at",2.48 fold
same,"Maximal effect, Fold induction","gene KIAA1219, Genbank BG236163, probe 221738_at",2.03 fold
same,"Maximal effect, Fold induction","gene LCP1, Genbank J02923, probe 208885_at",2.25 fold
same,"Maximal effect, Fold induction","gene LGALS8, Genbank L78132, probe 208935_s_at",2.79 fold
same,"Maximal effect, Fold induction","gene LOC23117, Genbank AL047052, probe 235060_at",2.00 fold
same,"Maximal effect, Fold induction","gene LOC55971, Genbank AA496034, probe 227372_s_at",2.09 fold
same,"Maximal effect, Fold induction","gene LOC158402, Genbank BE504242, probe 236769_at",2.00 fold
same,"Maximal effect, Fold induction","gene LOC284408, Genbank AW467077, probe 235779_at",2.03 fold
same,"Maximal effect, Fold induction","gene MAML2, Genbank AI769569, probe 235457_at",3.92 fold
same,"Maximal effect, Fold induction","gene MAP3K1, Genbank AA541479, probe 225927_at",2.05 fold
same,"Maximal effect, Fold induction","gene MDM4, Genbank NM_002393, probe 205655_at",2.06 fold
same,"Maximal effect, Fold induction","gene MGC9850, Genbank BE378670, probe 224857_s_at",2.58 fold
same,"Maximal effect, Fold induction","gene MICAL2, Genbank BE965029, probe 212473_s_at",2.01 fold
same,"Maximal effect, Fold induction","gene MT1X, Genbank NM_005952, probe 208581_x_at",3.10 fold
same,"Maximal effect, Fold induction","gene NEDD9, Genbank AL136139, probe 202149_at",2.24 fold
same,"Maximal effect, Fold induction","gene NQO1, Genbank AI039874, probe 201467_s_at",2.56 fold
same,"Maximal effect, Fold induction","gene NR3C1, Genbank AI432196, probe 201865_x_at",2.08 fold
same,"Maximal effect, Fold induction","gene PARVA, Genbank NM_018222, probe 217890_s_at",2.17 fold
same,"Maximal effect, Fold induction","gene PRDM15, Genbank AP001745, probe 225539_at",2.04 fold
same,"Maximal effect, Fold induction","gene PRSS23, Genbank NM_007173, probe 202458_at",2.05 fold
same,"Maximal effect, Fold induction","gene PSMD7, Genbank AW361702, probe 238738_at",2.04 fold
same,"Maximal effect, Fold induction","gene PTK9, Genbank N25562, probe 214008_at",2.05 fold
same,"Maximal effect, Fold induction","gene QDPR, Genbank BC000576, probe 209123_at",2.02 fold
same,"Maximal effect, Fold induction","gene S100P, Genbank NM_005980, probe 204351_at",2.33 fold
same,"Maximal effect, Fold induction","gene SGPL1, Genbank NM_003901, probe 208381_s_at",2.14 fold
same,"Maximal effect, Fold induction","gene SLC35D2, Genbank AJ005866, probe 213083_at",2.73 fold
same,"Maximal effect, Fold induction","gene SMAD5, Genbank AI439752, probe 235451_at",2.30 fold
same,"Maximal effect, Fold induction","gene STYX, Genbank BG390493, probe 244030_at",2.01 fold
same,"Maximal effect, Fold induction","gene SUOX, Genbank NM_000456, probe 1553030_a_at",2.05 fold
same,"Maximal effect, Fold induction","gene TACSTD2, Genbank J04152, probe 202286_s_at",2.17 fold
same,"Maximal effect, Fold induction","gene TEAD2, Genbank AA337048, probe 238323_at",2.81 fold
same,"Maximal effect, Fold induction","gene TGFB2, Genbank AU145950, probe 228121_at",2.04 fold
same,"Maximal effect, Fold induction","gene TLE3, Genbank AI567426, probe 212769_at",2.72 fold
same,"Maximal effect, Fold induction","gene TMEM42, Genbank BF056095, probe 226361_at",2.47 fold
same,"Maximal effect, Fold induction","gene TNFAIP2, Genbank NM_006291, probe 202510_s_at",2.41 fold
same,"Maximal effect, Fold induction","gene TRIO, Genbank AV718192, probe 209012_at",2.07 fold
same,"Maximal effect, Fold induction","gene UROS, Genbank NM_000375, probe 203031_s_at",2.13 fold
same,"Maximal effect, Fold induction","gene USP24, Genbank BF444943, probe 212381_at",2.01 fold
same,"Maximal effect, Fold induction","gene VHL, Genbank BF972755, probe 1559227_s_at",2.05 fold
same,"Maximal effect, Fold induction","gene WIG1, Genbank NM_022470, probe 219628_at",2.30 fold
same,"Maximal effect, Fold induction","gene ZNF26, Genbank BC046206, probe 1555325_s_at",2.03 fold
same,"Maximal effect, Fold induction","gene ZNF281, Genbank AA121673, probe 228785_at",2.28 fold
same,"Maximal effect, Fold induction","gene ZNF286, Genbank BM968434, probe 1557684_at",2.29 fold

# From patent publication US20060217305A1, “Induction of tumor cell senescence by retinoid receptor agonists and antagonists” (Ordway Research Institute, Inc., priority 2005, published 2006)
